GI50 and TGI data for twelve compounds are collected here from PubChem BioAssay (NCI).

What all share (assay): NCI tumour cell line growth inhibition, 48 h
The test system of experiment [1] is LOX IMVI melanoma.
The subject of experiment [2] is DU-145 prostate.
For experiment [3], the system named is MDA-MB-231 breast.
Experiment [4] concerns KM12 colon.
Experiment [5] concerns OVCAR-5 ovarian.
Experiment [6] has as its system SR leukemia.
Experiment [7] deals with SF-539 CNS.
Experiment [8] concerns SK-MEL-28 melanoma.
Experiment [9] deals with BT-549 breast.
Experiment [10] deals with MCF7 breast.

Several values for one entry are separate records, joined by “and”; a condition that tells them apart may be missing. Equal values may be shown once.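 Test compounds were applied to cells in 96-well plates for 48 hours at 5 doses. Here, GI50 denotes the concentration required for 50% inhibition of growth. TGI: concentration producing complete growth inhibition.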

For the compound `COC(=O)C1=C(C(=O)Nc2cccnc2)C2OC1(C(Cc1ccccc1)Oc1ccccc1)C1OC21` (configuration not stated), the GI50 in experiment [1] was 1.83 µM; in experiment [2], 1.77 µM; in experiment [3], 2.77 µM; in experiment [4] it was 14.6 µM; in experiment [5], 4.1 µM; in experiment [6], 0.918 µM. For the same compound, the GI50 in experiment [7] was 7.04 µM; in [8], 1.83 µM; in experiment [9], 3.43 µM; in experiment [10], 1.92 µM. The TGI in experiment [1] was determined as 3.68 µM; in [2] it was 3.27 µM; in [3] it was 6.52 µM; in experiment [4], 33.3 µM; in [5], 16.8 µM; in experiment [6] it was 5.13 µM. Further, the TGI in experiment [7] stood at 19.8 µM; in [8] it was 3.48 µM; in [9], 12.8 µM; in experiment [10] it was 5.33 µM.
With `CCN1CCN(CCNc2nccc(-c3c(-c4cccc(O)c4)nc4sccn34)n2)S1(=O)=O`, the GI50 is 4.96 µM and 2.53 µM in experiment [1]; 16.1 µM and 8.51 µM in experiment [2]; 10.5 µM and 7.3 µM in experiment [3]; 11 µM and 11.2 µM in experiment [4]; 21.7 µM and 65 µM in [5]; 7.65 µM and 5.96 µM in experiment [6]. For the same compound, the GI50 in experiment [7] was 28.6 µM and 21.3 µM; in experiment [8] it was 0.181 µM and 0.13 µM; in experiment [9] it was 20.4 µM and 6.31 µM; in [10], 26 µM and 19.5 µM. The TGI is 25.7 µM and 23.5 µM in experiment [1]; 32.5 µM and > 100 µM in [2]; 32.5 µM and > 100 µM in [3]; 32.5 µM and > 100 µM in [4]; 32.5 µM and > 100 µM in experiment [5]; 32.5 µM and 64.3 µM in experiment [6]. Further, the TGI in [7] was 32.5 µM and 78.5 µM; in experiment [8] it was 32.5 µM and > 100 µM; in [9] it was 32.5 µM and 76.6 µM; in experiment [10], 32.5 µM and > 100 µM.
Regarding `COc1ccccc1/C=C1\CCC(CN(C)C)C1=O` (configuration not stated), the TGI in [1] was determined as 4.67 µM; in experiment [2], 47.1 µM; in [3], 5.78 µM; in experiment [4], 12.4 µM; in experiment [5], 24.2 µM; in experiment [6] it was 13 µM. In addition, the TGI in experiment [7] came out at 27.2 µM; in experiment [8], 12.2 µM; in experiment [9], 28.1 µM; in [10] it was 5.87 µM.
With `CC(C)[C@@H]1NC(=O)[C@]2(C)CSC(=N2)c2csc(n2)CNC(=O)C[C@@H](/C=C/CCS)OC1=O`, the GI50 in experiment [1] is 0.131 µM; in experiment [2], 0.147 µM; in experiment [3], 0.317 µM; in experiment [4], 0.0526 µM; in experiment [5], 0.0829 µM; in [6], 0.0563 µM. The GI50 is 0.0543 µM in [7], 0.0564 µM in [8], 0.397 µM in experiment [9] and 0.274 µM in [10]. For the same compound, the TGI in experiment [1] was 0.355 µM; in experiment [2] it was more than 100 µM; in experiment [3], more than 47.4 µM; in experiment [4], more than 32.4 µM; in [5] it was more than 100 µM; in experiment [6] it was more than 100 µM. Besides, the TGI in experiment [7] was more than 100 µM; in [8], 7.01 µM; in experiment [9] it was more than 100 µM; in experiment [10], more than 100 µM.
On to `S=C(Nc1ccc(-c2nc3ccccc3s2)cc1)Nc1ccccn1`, for which the GI50 was 18.2 µM in [1]; 28.5 µM in experiment [2]; 16.6 µM in experiment [3]; 21.9 µM in experiment [4]; more than 52.8 µM in experiment [5]; 26.6 µM in experiment [6]. Besides, the GI50 in experiment [7] was 37.8 µM; in experiment [8] it was 35.3 µM; in experiment [9] it was 14.9 µM; in experiment [10], more than 100 µM. In addition, the TGI in [1] was 39.4 µM; in experiment [2], more than 100 µM; in [3], 48.3 µM; in experiment [4], more than 70.8 µM; in experiment [5], more than 81.4 µM; in [6], 57.4 µM. Moreover, the TGI in [7] was more than 100 µM; in experiment [8] it was more than 95.4 µM; in experiment [9], more than 100 µM; in [10], more than 100 µM.
`Clc1cccc(Cn2cc(Cc3cn(Cc4cccc(Cl)c4)c4ccccc34)c3ccccc32)c1`: the GI50 is 33.3 µM in [1]; more than 100 µM in experiment [2]; 52 µM in experiment [3]; more than 100 µM in [4]; 47.1 µM in [5]; more than 100 µM in [6]. Also, the GI50 in experiment [7], in experiment [8], in experiment [9] and in [10] was more than 100 µM throughout. For the same compound, the TGI in [1], in experiment [2], in experiment [3], in [4], in experiment [5] and in experiment [6] was more than 100 µM each time. Moreover, the TGI in [7], in [8], in experiment [9] and in experiment [10] was more than 100 µM each time.
As for `O=C1OCC2=C1C(c1cccc([N+](=O)[O-])c1)c1cc3c(cc1N2CCO)CCC3` (configuration not stated), the GI50 in experiment [1] is 0.286 µM; in experiment [2] it was 0.19 µM; in experiment [3], 0.271 µM; in [4], 0.0928 µM; in [5], 0.231 µM; in [6], 0.0554 µM. The GI50 is 0.11 µM in experiment [7], 1.3 µM in experiment [8], 0.177 µM in experiment [9] and 0.0596 µM in experiment [10]. The TGI was 8.29 µM in experiment [1]; more than 24.5 µM in experiment [2]; more than 19.3 µM in experiment [3]; 19.8 µM in [4]; more than 50 µM in [5]; more than 36.3 µM in experiment [6]. The TGI in experiment [7] is 0.38 µM; in [8], more than 39.9 µM; in experiment [9] it was 5.32 µM; in experiment [10], more than 50 µM.
On to `NC(Cc1cc(Br)c(O)c(Br)c1)C(=O)O` (configuration not stated), for which the TGI in [1], in [2], in experiment [3], in [4], in experiment [5] and in experiment [6] was more than 100 µM each time. For the same compound, the TGI in experiment [7], in experiment [8], in experiment [9] and in [10] was more than 100 µM in each case.
Regarding `NC(=O)Cc1ccccc1Oc1nccc(-c2c(-c3ccc(F)cc3)ncn2C2CCNCC2)n1`, the GI50 in experiment [1], in [2], in experiment [3], in [4], in experiment [5] and in experiment [6] was more than 25 µM throughout. The GI50 in experiment [7], in experiment [8], in experiment [9] and in experiment [10] was more than 25 µM in each case. Moreover, the TGI in experiment [1], in experiment [2], in experiment [3], in experiment [4], in [5] and in experiment [6] was more than 25 µM in each case. In addition, the TGI in experiment [7], in [8], in experiment [9] and in experiment [10] was more than 25 µM throughout.
Regarding `Cc1nc(NC(=O)COc2cccc(/C=C3\COc4ccccc4C3=O)c2)sc1C`, the GI50 was 1.01 µM in experiment [1]; 2.1 µM in experiment [2]; 2.63 µM in [3]; 1.5 µM in [4]; 1.94 µM in experiment [5]; 0.872 µM in [6]. Moreover, the GI50 was 1.73 µM in experiment [7], 1.79 µM in experiment [8], 1.59 µM in experiment [9] and 0.665 µM in experiment [10]. For the same compound, the TGI is 2.55 µM in experiment [1]; 4.09 µM in experiment [2]; 7.41 µM in [3]; 2.92 µM in experiment [4]; 3.88 µM in experiment [5]; more than 100 µM in [6]. For the same compound, the TGI in experiment [7] came out at 3.46 µM; in experiment [8] it was 3.32 µM; in experiment [9], 3.28 µM; in experiment [10], 2.83 µM.
Consider `O=C1C(CN(Cc2ccccc2)Cc2ccccc2)CCCC1CN(Cc1ccccc1)Cc1ccccc1` (configuration not stated), for which the GI50 was 14.1 µM and > 77.1 µM in [1]; > 100 µM and 38.3 µM in experiment [3]; 40.2 µM and > 100 µM in experiment [4]; 77.3 µM in [6]; 17.2 µM and 50.5 µM in experiment [7]; 21 µM and > 100 µM in experiment [8]. In addition, the GI50 in [10] is 20.3 µM and > 100 µM. Further, the TGI in [1] was 28.3 µM and > 100 µM; in experiment [2], more than 100 µM; in experiment [3], more than 100 µM; in [4], more than 100 µM; in experiment [5], more than 100 µM; in [6], more than 100 µM. Besides, the TGI is 33.1 µM and > 100 µM in [7]; 38.8 µM and > 100 µM in [8]; more than 100 µM in experiment [9]; more than 100 µM in experiment [10].
Regarding `O=C1OCC2=C1C(c1ccccc1)c1cc3c(cc1N2CCO)CCC3` (configuration not stated), the GI50 in experiment [1] was 0.176 µM; in experiment [2], 0.0778 µM; in experiment [3], 0.689 µM; in [4], 0.0793 µM; in experiment [5] it was 0.203 µM; in experiment [6], 0.0762 µM. Further, the GI50 in [7] was 0.0732 µM; in [8], 0.168 µM; in experiment [9], 0.223 µM; in experiment [10], 0.0841 µM. The TGI in [1] is more than 25 µM; in experiment [2], 0.464 µM; in experiment [3] it was more than 25 µM; in experiment [4], 0.922 µM; in [5] it was more than 25 µM; in experiment [6], more than 25 µM. The TGI in experiment [7] was 0.966 µM; in [8], more than 25 µM; in experiment [9], more than 25 µM; in experiment [10], more than 25 µM.
